# Measured values taken from ChEMBL document CHEMBL1128802, “Hydroxy-anthraquinones as antimalarial agents” (Bioorg Med Chem Lett, 1995).
# What was measured:
# [1] = tested on: Plasmodium falciparum; test: In vitro inhibitory activity against Plasmodium falciparum D6; format: functional, organism-based
# [2] = tested on: CFU-GM; test: In vitro toxicity against human bone marrow stem cells (CFU-GM) in the absence (control); activity expressed as average colony count; format: functional, Bone element
# [3] = tested on: CFU-GM; test: In vitro toxicity against human bone marrow stem cells(CFU-GM) at a dose of 0.1 uM; activity expressed as average colony count; format: functional
# [4] = tested on: CFU-GM; test: In vitro toxicity against human bone marrow stem cells(CFU-GM) at a dose of 1.0 uM; activity expressed as average colony count; format: functional
# [5] = tested on: CFU-GM; test: In vitro toxicity against human bone marrow stem cells(CFU-GM) at a dose of 10.0 uM; activity expressed as average colony count; format: functional
# [6] = tested on: CFU-GM; test: In vitro toxicity against human bone marrow stem cells(CFU-GM) at a dose of 100.0 uM; activity expressed as average colony count; format: functional
# [7] = tested on: CFU-GM; test: In vitro toxicity against human bone marrow stem cells(CFU-GM) at a dose of 5.0 uM; activity expressed as average colony count; format: functional
# [8] = tested on: CFU-GM; test: In vitro toxicity against human bone marrow stem cells(CFU-GM) in the absence (control); activity expressed as average colony count; format: functional
Compound,IC50 [1] [µM],further results
COc1c(OC)c(OC)c2c(c1OC)C(=O)c1c(OC)c(OC)c(OC)c(OC)c1C2=O,≥ 5,
COc1c(Br)c2c(c(OC)c1OC)C(=O)c1c(Br)c(OC)c(OC)c(OC)c1C2=O,≥ 5,
O=C1c2cc(O)c(O)c(O)c2C(=O)c2cc(O)c(O)c(O)c21,0.035,Average colony count [2]: 56; Average colony count [3]: 61; Average colony count [4]: 57; Average colony count [5]: 36; Average colony count [6]: 5; Average colony count [7]: 47
O=C1c2ccccc2C(=O)c2ccccc21 [ANTHRAQUINONE],5,
CCN(CC)CCCC(C)Nc1ccnc2cc(Cl)ccc12 (centres undefined) [CHLOROQUINE],,Average colony count [3]: 56; Average colony count [4]: 54; Average colony count [5]: 48; Average colony count [6]: 5; Average colony count [7]: 54; Average colony count [8]: 56

# More lines, main results first:
IC50 [1] [µM],Compound,further results
≥ 5,COc1cc2c(cc1OC)C(=O)c1cc(OC)c(OC)cc1C2=O,
0.8,O=C1c2c(O)c(O)c(O)c(O)c2C(=O)c2c(O)c(O)c(O)c(O)c21,
≥ 5,COc1cc2c(c(OC)c1OC)C(=O)c1cc(OC)c(OC)c(OC)c1C2=O,
5,O=C1c2c(O)c(O)c(O)c(Br)c2C(=O)c2c(O)c(O)c(O)c(Br)c21,
0.3,O=C1c2cc(O)c(O)cc2C(=O)c2cc(O)c(O)cc21,
> 1,O=C1c2ccc(O)cc2C(=O)c2ccc(O)cc21 [ANTHRAFLAVICACID],
> 1,O=C1c2cccc(O)c2C(=O)c2cccc(O)c21 [ANTHRARUFIN],
> 1,O=C1c2ccccc2C(=O)c2c(O)c(O)cc(O)c21 [PURPURIN],
